# According to patent US20090202659A1, “Modulation of Peripheral Clocks in Adipose Tissue” (priority 2005, published 2009):
# How the values were obtained:
# [1] = test system: adipocyte-differentiated human adipose stem cells; assay: Effect of GSK3B inhibitor on dexamethasone-induced circadian gene expression profiles of human ASCs (qRT-PCR); assay type: cell-based; conditions: 30 μM in serum-free media after 2 hr 1 μM dexamethasone, FIG. 12
# Method: Treatment of human adipose derived stem cells with dexamethasone was shown above to induce a circadian rhythm in vitro, and studies were conducted to see if this induction would be blocked by the addition of a glycogen synthase kinase 3 beta inhibitor. Confluent cultures of human ASCs were induced by exposure to 1 micromolar dexamethasone for a period of 2 hr. The medium was changed to either serum-free media (SF), or serum-free media with 30 μM SB415286 (SB415, an inhibitor of glycogen synthase kinase 3 beta). Individual cultures were harvested for total RNA at the indicated times and used for qRT-PCR analysis of gene expression of Bmal1, Per3, and Rev-erbα, and normalized relative to the corresponding Cyclophilin B levels.
# [2] = test system: undifferentiated human ASCs; assay: Circadian gene expression induction in undifferentiated human ASCs (qRT-PCR); assay type: cell-based; conditions: for Rev-erbα and Rev-erbβ expression zenith, time: three donors
# Source text: Human Adipose-Derived Stem Cell (ASCs) Isolation and Expansion. All protocols were reviewed and approved by the Pennington Biomedical Research Center Institutional Research Board (IRB; Baton Rouge, La.) prior to the study. Liposuction aspirates from subcutaneous adipose tissue sites were obtained from female subjects undergoing elective procedures in local plastic surgical offices. Tissues were washed 3-4 times with phosphate-buffered saline (PBS) and suspended in an equal volume of PBS supplemented with 1% bovine serum and 0.1% collagenase type I (Worthington Biochemical Corporation, Lakewood, N.J.) prewarmed to 37° C. The tissue was then placed in a shaking water bath at 37° C. with continuous agitation for 60 min and centrifuged for 5 min at 300-500×g at room temperature. The supernatant, containing mature adipocytes, was aspirated. The pellet was identified as the stromal vascular fraction (SVF). Portions of the SVF were resuspended in cryopreservation medium (10% dimethylsulfoxide, 10% DMEM/F 12 Ham's, 80% fetal bovine serum), frozen at −80° C. in an ethanol-jacketed, closed container, and subsequently stored in liquid nitrogen. Portions of the SVF were used in colony forming unit assays (see below). The remaining cells of the SVF were suspended and plated immediately in T225 flasks in stromal medium (DMEM/F 12 Ham's, 10% fetal bovine serum (Hyclone, Logan, Utah), 100 U penicillin/100 μg streptomycin/0.25 μg Fungizone) at a density of 0.156 ml of tissue digest/sq cm of surface area for expansion and culture. This initial passage of the primary cell culture was referred to as “Passage 0” (P0). […] The cells were passaged by trypsin (0.05%) digestion and plated at a density of 5,000 cells/cm^2 (“Passage 1”). Cell viability and numbers at the time of passage were determined by trypan blue exclusion and hemacytometer cell counts. Cells were passaged repeatedly after achieving a density of 75-90% (approximately 6 days in culture) until Passage 2.
# Circadian Induction: The medium was removed from confluent cultures of undifferentiated or adipocyte-differentiated human ASCs in 6 well plates and replaced with DMEM/Ham's F12 medium and 100 U penicillin/100 μg streptomycin/0.25 μg Fungizone alone or supplemented with one of the following: 30% FBS, 1 μM dexamethasone, or 5 μM rosiglitazone. The ASCs were exposed to the inductive agents for 2 hr. A single plate under each condition was harvested for total RNA after 1 hr of induction. After 2 hr, the medium in the remaining plates was replaced with serum free DMEM/Ham's F12 medium and 100 U penicillin/100 μg streptomycin/0.25 μg Fungizone alone.
# Quantitative Real-time RT-PCR (qRT-PCR) for Human ASCs: Total RNA was purified from the ASCs as described above for mouse tissues using TriReagent (Molecular Research Center) according to the manufacturer's specifications. Approximately 2 μg of total RNA was reverse transcribed using Moloney Murine Leukemia Virus Reverse Transcriptase (MMLV-RT; Promega), with Oligo dT at 42° C. for 1 hr in a 20 μL reaction. Primers for genes of interest (listed in Table 2) were identified using Primer Express software (Applied Biosystems). All primers were based on the sequence of the corresponding human mRNA and were designed to amplify across at least one exon/intron junction. qRT-PCR was performed on diluted cDNA samples with SYBR® Green PCR Master Mix (Applied Biosystems) using the 7900 Real Time PCR system (Applied Biosystems) under universal cycling conditions (95° C. for 10 min; 40 cycles of 95° C. for 15 sec; then 60° C. for 1 min). All results were normalized relative to a Cyclophilin B expression control.
# Periodicity Analysis: Periodicity of the circadian data obtained by qRT-PCR was tested with Time Series Analysis-Single Cosinor v. 6.0 software (Expert Soft Technologie). […] Model was also tested for validity at the 0.950 probability level (ANOVA).
# [3] = test system: adipocyte-differentiated human ASCs; assay: Circadian gene expression induction in adipocyte-differentiated human ASCs (qRT-PCR); assay type: cell-based
# Source text: Human Adipose-Derived Stem Cell (ASCs) Isolation and Expansion. All protocols were reviewed and approved by the Pennington Biomedical Research Center Institutional Research Board (IRB; Baton Rouge, La.) prior to the study. Liposuction aspirates from subcutaneous adipose tissue sites were obtained from female subjects undergoing elective procedures in local plastic surgical offices. Tissues were washed 3-4 times with phosphate-buffered saline (PBS) and suspended in an equal volume of PBS supplemented with 1% bovine serum and 0.1% collagenase type I (Worthington Biochemical Corporation, Lakewood, N.J.) prewarmed to 37° C. The tissue was then placed in a shaking water bath at 37° C. with continuous agitation for 60 min and centrifuged for 5 min at 300-500×g at room temperature. The supernatant, containing mature adipocytes, was aspirated. The pellet was identified as the stromal vascular fraction (SVF). Portions of the SVF were resuspended in cryopreservation medium (10% dimethylsulfoxide, 10% DMEM/F 12 Ham's, 80% fetal bovine serum), frozen at −80° C. in an ethanol-jacketed, closed container, and subsequently stored in liquid nitrogen. Portions of the SVF were used in colony forming unit assays (see below). The remaining cells of the SVF were suspended and plated immediately in T225 flasks in stromal medium (DMEM/F 12 Ham's, 10% fetal bovine serum (Hyclone, Logan, Utah), 100 U penicillin/100 μg streptomycin/0.25 μg Fungizone) at a density of 0.156 ml of tissue digest/sq cm of surface area for expansion and culture. This initial passage of the primary cell culture was referred to as “Passage 0” (P0). Following the first 48 hr of incubation at 37° C. at 5% CO2, the cultures were washed with PBS and maintained in Stromal Media until they achieved 75-90% confluence (approximately 6 days in culture). The cells were passaged by trypsin (0.05%) digestion and plated at a density of 5,000 cells/cm^2 (“Passage 1”). Cell viability and numbers at the time of passage were determined by trypan blue exclusion and hemacytometer cell counts. Cells were passaged repeatedly after achieving a density of 75-90% (approximately 6 days in culture) until Passage 2. […]
# Quantitative Real-time RT-PCR (qRT-PCR) for Human ASCs: Total RNA was purified from the ASCs as described above for mouse tissues using TriReagent (Molecular Research Center) according to the manufacturer's specifications. […]
# bipolar patients = conditions: A. Fagiolini et al., 2002, 2003; cited from earlier work
# [4] = 1 μM for 2 hr, then serum free medium, four donors, FIG. 8B
# [5] = undifferentiated ASCs, 2 hr exposure
# [6] = adipocyte-differentiated vs undifferentiated ASCs
smiles,measurement,setting,value
O=C1NC(=O)C(c2ccccc2[N+](=O)[O-])=C1Nc1ccc(O)c(Cl)c1 [SB415286],effect on circadian cycle of gene expression,[1],shifted and lengthened
same,"mRNA induction profile delayed and shifted (Bmal1, Per3, Rev-erb alpha)",[1]; vs serum-free media alone,6 to 9 h
C[C@@H]1C[C@H]2[C@@H]3CCC4=CC(=O)C=C[C@]4(C)[C@@]3(F)[C@@H](O)C[C@]2(C)[C@@]1(O)C(=O)CO [dexamethasone],"Bmal1 peak levels, first peak, time following induction",[2]; [4],16 to 20 h
same,"Bmal1 peak levels, second peak, time following induction",[2]; [4],40 h
same,"Per1, Per3, and Cry2 expression peaks, time after induction",[2]; [4],28 to 32 h
same,"immediate-early induction of Per1, Per3, and Cry2 mRNAs, time after induction",[2]; [4],1 to 4 h
same,"phase shift of Bmal1 relative to Per1, Per3, and Cry2","[2]; 1 μM for 2 hr, four donors",8 to 12 h
same,"Rev-erbα peak levels, time post induction","[2]; 1 μM for 2 hr, four donors, FIG. 8B",24 h
same,"Rev-erbα and Rev-erbβ expression zenith, time",[2]; [5],24 h
same,"Per 3 subsequent peak, time","[3]; adipocyte-differentiated ASCs, 2 hr exposure, three donors",20 to 24 h
same,Rev-erbα and Rev-erbβ phase-advance relative to the undifferentiated ASCs,[3]; [6],~8 h
[Cl-].[Li+] [lithium chloride],weight change under pharmacotherapy,bipolar patients,gain weight rapidly and become obese
"CN(CCOc1ccc(CC2SC(=O)NC2=O)cc1)c1ccccn1 (stereo not shown) [thiazolidinedione, rosiglitazone]",Per 3 immediate early response,[2]; [5],Neither 30% serum nor thiazolidinedione initiated an immediate early response
same,"Rev-erbα and Rev-erbβ expression zenith, time",[2]; [5],24 h
same,Per 3 peak expression earlier in adipocyte-differentiated than in undifferentiated ASCs,[3]; [6],approximately 4 hr
same,Rev-erbα and Rev-erbβ phase-advance relative to the undifferentiated ASCs,[3]; [6],~8 h
